Results published in paper PMC10385579, “Design, Synthesis, and Biological Evaluation of Indole-2-carboxamides as Potential Multi-Target Antiproliferative Agents” (Pharmaceuticals, 2023).

Assays:
[1] = Cell viability assay (MTT) on MCF-10A; assay type: cell-based; details: human, MCF-10A mammary gland epithelial cells, MCF-10A cells, four days
Method: To assess the viability of compounds IV and Va–i, the human mammary gland epithelial (MCF-10A) cell line was exploited. Compounds IV and Va–i were cultured for four days on MCF-10A cells before being evaluated for vitality using the MTT assay.
To test the viability of the new compounds, the human mammary gland epithelial (MCF-10A) cell line was used. Compounds IV and Va–i were incubated on MCF-10A cells for four days before being tested for viability using the MTT assay. See Supplementary Materials.
4.2. Biological evaluation
4.2.1. Cytotoxic activity using MTT Assay and evaluation of IC50
MTT assay was performed to investigate the effect of the synthesized compounds on mammary epithelial cells (MCF-10A). The cells were propagated in medium consisting of Ham's F-12 medium/ Dulbecco's modified Eagle's medium (DMEM) (1:1) supplemented with 10% foetal calf serum, 2 mM glutamine, insulin (10 μg/mL), hydrocortisone (500 ng/mL) and epidermal growth factor (20 ng/mL). Trypsin ethylenediamine tetra acetic acid (EDTA) was used to passage the cells after every 2-3 days. 96-well flat-bottomed cell culture plates were used to seed the cells at a density of 10^4 cells mL-1. The medium was aspirated from all the wells of culture plates after 24 h followed by the addition of synthesized compounds (in 200 μL medium to yield a final concentration of 0.1% (v/v) dimethyl sulfoxide) into individual wells of the plates. Four wells were designated to a single compound. The plates were allowed to incubate at 37°C for 96 h. Afterwards, the medium was aspirated and 3-[4,5-dimethylthiazol-2-yl]-2,5-diphenyltetrazolium bromide (MTT) (0.4 mg/mL) in medium was added to each well and subsequently incubated for 3 h. The medium was aspirated and 150 μL dimethyl sulfoxide (DMSO) was added to each well. The plates were vortexed followed by the measurement of absorbance at 540 nm on a microplate reader. The results were presented as inhibition (%) of proliferation in contrast to controls comprising 0.1%

[2] = test system: human epithelial (A-549) cancer cell line; experiment: Antiproliferative assay, A-549; assay type: cell-based; details: A549, read-out: Antiproliferative Activity IC50 ± SEM, A-549
Method: 4.2.1.2. Assay for antiproliferative effect
To explore the antiproliferative potential of compounds propidium iodide fluorescence assay was performed using different cell lines such as Panc-1 (pancreas cancer cell line), MCF-7 (breast cancer cell line), HT-29 (colon cancer cell line) and A-549 (epithelial cancer cell line), respectively.
To calculate the total nuclear DNA, a fluorescent dye (propidium iodide, PI) is used which can attach to the DNA, thus offering a quick and precise technique. PI cannot pass through the cell membrane and its signal intensity can be considered as directly proportional to quantity of cellular
DNA. Cells whose cell membranes are damaged or have changed permeability are counted as dead ones. The assay was performed by seeding the cells of different cell lines at a density of 3000-7500 cells/well (in200μl medium) in culture plates followed by incubation for 24h at 37 °C in humidified 5%CO2/95% air atmospheric conditions. The medium was removed; the compounds were added to the plates at 10 μM concentrations (in 0.1% DMSO) in triplicates, followed by incubation for 48h. DMSO (0.1%) was used as control. After incubation, medium was removed followed by the addition of PI (25 μl, 50μg/mL in water/medium) to each well of the plates. At - 80 °C, the plates were allowed to freeze for 24 h, followed by thawing at 25 °C. A fluorometer (Polar-Star BMG Tech) was used to record the readings at excitation and emission wavelengths of 530 and 620 nm for each well. The percentage cytotoxicity of compounds was calculated using […]
Where ATC= Absorbance of treated cells and AC= Absorbance of control. Erlotinib was used as positive control in the assay.

[3] = test system: Bax; experiment: Bax level assay in A-549 cells; assay type: cell-based, human; details: for Bax Conc: control 9; for Bax Fold Change: vs control
Method: caspase8, and lysed with Cell Extraction Buffer. This lysate was diluted in Standard Diluent Buffer over the range of the assay and measured for human active caspase-8 content. […]
4.2.7. Bax activation assay
Bring all reagents, except the human Bax-α Standard, to room temperature for at least 30 minutes prior to opening. The human Bax-α Standard solution should not be left at room temperature for more than 10 minutes. All standards, controls and samples should be run in duplicate. Refer to the Assay Layout Sheet to determine the number of wells to be used and put any remaining wells with the desiccant back into the pouch and seal the ziploc. Store unused wells at 4 °C. Pipet 100 μL of Assay Buffer into the S0 (0 pg/mL standard) wells. Pipet 100 μL of Standards #1 through #6 into the appropriate wells. Pipet 100 μL of the Samples into the appropriate wells. Tap the plate gently to mix the contents. Seal the plate and incubate at room temperature on a plate shaker for 1 hour at ~500 rpm. Empty the contents of the wells and wash by adding 400 μL of wash solution to every well. Repeat the wash 4 more times for a total of 5 washes. After the final wash, empty or aspirate the wells and firmly tap the plate on a lint free paper towel to remove any remaining wash buffer.
Pipet 100 μL of yellow Antibody into each well, except the Blank. Seal the plate and incubate at room temperature on a plate shaker for 1 hour at ~500 rpm. Empty the contents of the wells and wash by adding 400 μL of wash solution to every well. Repeat the wash 4 more times for a total of 5 washes. After the final wash, empty or aspirate the wells and firmly tap the plate on a lint free paper towel to remove any remaining wash buffer. Add 100 μL of blue Conjugate to each well, except the Blank. Seal the plate and incubate at room temperature on a plate shaker for 30 minutes […]
Pipet 100 μL of Substrate Solution into each well. Incubate for 30 minutes at room temperature on a plate shaker at ~500 rpm. Pipet 100 μL Stop Sol ution to each well. Blank the plate reader against the Blank wells, read the optical density at 450 nm. Calculate the average net Optical Density (OD) bound for each standard and sample by subtracting the average Blank OD from the average OD for each standard and sample. Using linear graph paper, plot the Average Net OD for each standard versus Bax concentration in each standard. Approximate a straight line through the points.
The concentration of Bax in the unknowns can be determined by interpolation. […]

Row | Compound | viability at 96 h, 50 µM [1] | IC50 [2] | Bax Conc [3] | Bax Fold Change [3] | melting point
1 | CO/C=C/c1c(C(=O)NCC(c2ccccc2)c2c(-c3ccccc3)[nH]c3ccccc23)[nH]c2ccc(Cl)cc12 (stereo not shown) [Compound Vg, (E)-5-Chloro-3-(2-methoxyvinyl)-N-(2-phenyl-2-(2-phenyl-1H-indol-3-yl)ethyl)-1H-indole-2-carboxamide] | 89% | 30 ± 2 nM | 320 pg/mL | 35 | 140 to 142 °C
2 | O=C(NCC(c1ccccc1)c1c(-c2ccccc2)[nH]c2ccccc12)c1cc2cc(Cl)ccc2[nH]1 (stereo not shown) [Compound Va, 5-Chloro-N-(2-phenyl-2-(2-phenyl-1H-indol-3-yl)ethyl)-1H-indole-2-carboxamide] | 91% | 25 ± 2 nM | 410 pg/mL | 45 | 112 to 114 °C
